Key:
Kidney [1] = experiment: Biodistribution in mouse S180 cells xenografted Kunming mouse kidney at 10 to 20 uCi, iv after 60 mins by gamma counting; assay type: ADME, organism-based, CCRF S-180; settings: in vivo, 1 h
[2] = Biodistribution in mouse S180 cells xenografted Kunming mouse tumor at 10 to 20 uCi, iv after 5 mins by gamma counting; assay type: ADME, organism-based, Neoplasm, CCRF S-180; settings: in vivo
Lung [3] = experiment: Biodistribution in mouse S180 cells xenografted Kunming mouse lung at 10 to 20 uCi, iv after 60 mins by gamma counting; assay type: ADME, organism-based, CCRF S-180; settings: in vivo, 1 h
Muscle tissue [4] = experiment: Biodistribution in mouse S180 cells xenografted Kunming mouse muscle at 10 to 20 uCi, iv after 5 mins by gamma counting; assay type: ADME, organism-based, CCRF S-180; settings: in vivo
[5] = Ratio of drug uptake in tumor to muscle of mouse S180 cells xenografted Kunming mouse at 10 to 20 uCi, iv after 60 mins by gamma counting; assay type: ADME, organism-based, CCRF S-180; settings: in vivo, 1 h
[6] = Ratio of drug uptake in tumor to brain of mouse S180 cells xenografted Kunming mouse at 10 to 20 uCi, iv after 30 mins by gamma counting; assay type: ADME, organism-based, CCRF S-180; settings: in vivo, 0.5 h
Kidney [7] = experiment: Biodistribution in mouse S180 cells xenografted Kunming mouse kidney at 10 to 20 uCi, iv after 15 mins by gamma counting; assay type: ADME, organism-based, CCRF S-180; settings: in vivo, 0.25 h
Heart [8] = experiment: Biodistribution in mouse S180 cells xenografted Kunming mouse heart at 10 to 20 uCi, iv after 120 mins by gamma counting; assay type: ADME, organism-based, CCRF S-180; settings: in vivo, 2 h
Blood [9] = experiment: Biodistribution in mouse S180 cells xenografted Kunming mouse blood at 10 to 20 uCi, iv after 5 mins by gamma counting; assay type: ADME, organism-based, CCRF S-180; settings: in vivo
[10] = Ratio of drug uptake in tumor to muscle of mouse S180 cells xenografted Kunming mouse at 10 to 20 uCi, iv after 30 mins by gamma counting; assay type: ADME, organism-based, CCRF S-180; settings: in vivo, 0.5 h
Pancreas [11] = experiment: Biodistribution in mouse S180 cells xenografted Kunming mouse pancreas at 10 to 20 uCi, iv after 120 mins by gamma counting; assay type: ADME, organism-based, CCRF S-180; settings: in vivo, 2 h
Pancreas [12] = experiment: Biodistribution in mouse S180 cells xenografted Kunming mouse pancreas at 10 to 20 uCi, iv after 5 mins by gamma counting; assay type: ADME, organism-based, CCRF S-180; settings: in vivo
Kidney [13] = experiment: Biodistribution in mouse S180 cells xenografted Kunming mouse kidney at 10 to 20 uCi, iv after 120 mins by gamma counting; assay type: ADME, organism-based, CCRF S-180; settings: in vivo, 2 h
Liver [14] = experiment: Biodistribution in mouse S180 cells xenografted Kunming mouse liver at 10 to 20 uCi, iv after 30 mins by gamma counting; assay type: ADME, organism-based, CCRF S-180; settings: in vivo, 0.5 h
[15] = Ratio of drug uptake in tumor to blood of mouse S180 cells xenografted Kunming mouse at 10 to 20 uCi, iv after 120 mins by gamma counting; assay type: ADME, organism-based, CCRF S-180; settings: tumour, 2 h
Brain [16] = experiment: Biodistribution in mouse S180 cells xenografted Kunming mouse brain at 10 to 20 uCi, iv after 120 mins by gamma counting; assay type: ADME, organism-based, CCRF S-180; settings: in vivo, 2 h
Brain [17] = experiment: Biodistribution in mouse S180 cells xenografted Kunming mouse brain at 10 to 20 uCi, iv after 15 mins by gamma counting; assay type: ADME, organism-based, CCRF S-180; settings: in vivo, 0.25 h
Liver [18] = experiment: Biodistribution in mouse S180 cells xenografted Kunming mouse liver at 10 to 20 uCi, iv after 120 mins by gamma counting; assay type: ADME, organism-based, CCRF S-180; settings: in vivo, 2 h
Lung [19] = experiment: Biodistribution in mouse S180 cells xenografted Kunming mouse lung at 10 to 20 uCi, iv after 15 mins by gamma counting; assay type: ADME, organism-based, CCRF S-180; settings: in vivo, 0.25 h
Heart [20] = experiment: Biodistribution in mouse S180 cells xenografted Kunming mouse heart at 10 to 20 uCi, iv after 5 mins by gamma counting; assay type: ADME, organism-based, CCRF S-180; settings: in vivo
Blood [21] = experiment: Biodistribution in mouse S180 cells xenografted Kunming mouse blood at 10 to 20 uCi, iv after 120 mins by gamma counting; assay type: ADME, organism-based, CCRF S-180; settings: in vivo, 2 h
Pancreas [22] = experiment: Biodistribution in mouse S180 cells xenografted Kunming mouse pancreas at 10 to 20 uCi, iv after 15 mins by gamma counting; assay type: ADME, organism-based, CCRF S-180; settings: in vivo, 0.25 h
[23] = Ratio of drug uptake in tumor to muscle of mouse S180 cells xenografted Kunming mouse at 10 to 20 uCi, iv after 120 mins by gamma counting; assay type: ADME, organism-based, CCRF S-180; settings: in vivo, 2 h
Brain [24] = experiment: Biodistribution in mouse S180 cells xenografted Kunming mouse brain at 10 to 20 uCi, iv after 60 mins by gamma counting; assay type: ADME, organism-based, CCRF S-180; settings: in vivo, 1 h
Heart [25] = experiment: Biodistribution in mouse S180 cells xenografted Kunming mouse heart at 10 to 20 uCi, iv after 15 mins by gamma counting; assay type: ADME, organism-based, CCRF S-180; settings: in vivo, 0.25 h
[26] = Ratio of drug uptake in tumor to muscle of mouse S180 cells xenografted Kunming mouse at 10 to 20 uCi, iv after 15 mins by gamma counting; assay type: ADME, organism-based, CCRF S-180; settings: in vivo, 0.25 h
Lung [27] = experiment: Biodistribution in mouse S180 cells xenografted Kunming mouse lung at 10 to 20 uCi, iv after 30 mins by gamma counting; assay type: ADME, organism-based, CCRF S-180; settings: in vivo, 0.5 h
Lung [28] = experiment: Biodistribution in mouse S180 cells xenografted Kunming mouse lung at 10 to 20 uCi, iv after 120 mins by gamma counting; assay type: ADME, organism-based, CCRF S-180; settings: in vivo, 2 h
[29] = Biodistribution in mouse S180 cells xenografted Kunming mouse tumor at 10 to 20 uCi, iv after 120 mins by gamma counting; assay type: ADME, organism-based, Neoplasm, CCRF S-180; settings: in vivo, 2 h
Liver [30] = experiment: Biodistribution in mouse S180 cells xenografted Kunming mouse liver at 10 to 20 uCi, iv after 5 mins by gamma counting; assay type: ADME, organism-based, CCRF S-180; settings: in vivo
[31] = Ratio of drug uptake in tumor to brain of mouse S180 cells xenografted Kunming mouse at 10 to 20 uCi, iv after 15 mins by gamma counting; assay type: ADME, organism-based, CCRF S-180; settings: in vivo, 0.25 h
[32] = Ratio of drug uptake in tumor to brain of mouse S180 cells xenografted Kunming mouse at 10 to 20 uCi, iv after 60 mins by gamma counting; assay type: ADME, organism-based, CCRF S-180; settings: in vivo, 1 h
Pancreas [33] = experiment: Biodistribution in mouse S180 cells xenografted Kunming mouse pancreas at 10 to 20 uCi, iv after 60 mins by gamma counting; assay type: ADME, organism-based, CCRF S-180; settings: in vivo, 1 h
Blood [34] = experiment: Biodistribution in mouse S180 cells xenografted Kunming mouse blood at 10 to 20 uCi, iv after 60 mins by gamma counting; assay type: ADME, organism-based, CCRF S-180; settings: in vivo, 1 h
Pancreas [35] = experiment: Biodistribution in mouse S180 cells xenografted Kunming mouse pancreas at 10 to 20 uCi, iv after 30 mins by gamma counting; assay type: ADME, organism-based, CCRF S-180; settings: in vivo, 0.5 h
[36] = Biodistribution in mouse S180 cells xenografted Kunming mouse tumor at 10 to 20 uCi, iv after 60 mins by gamma counting; assay type: ADME, organism-based, Neoplasm, CCRF S-180; settings: in vivo, 1 h
Lung [37] = experiment: Biodistribution in mouse S180 cells xenografted Kunming mouse lung at 10 to 20 uCi, iv after 5 mins by gamma counting; assay type: ADME, organism-based, CCRF S-180; settings: in vivo
[38] = Biodistribution in mouse S180 cells xenografted Kunming mouse tumor at 10 to 20 uCi, iv after 30 mins by gamma counting; assay type: ADME, organism-based, Neoplasm, CCRF S-180; settings: in vivo, 0.5 h
Kidney [39] = experiment: Biodistribution in mouse S180 cells xenografted Kunming mouse kidney at 10 to 20 uCi, iv after 5 mins by gamma counting; assay type: ADME, organism-based, CCRF S-180; settings: in vivo
Liver [40] = experiment: Biodistribution in mouse S180 cells xenografted Kunming mouse liver at 10 to 20 uCi, iv after 60 mins by gamma counting; assay type: ADME, organism-based, CCRF S-180; settings: in vivo, 1 h
Kidney [41] = experiment: Biodistribution in mouse S180 cells xenografted Kunming mouse kidney at 10 to 20 uCi, iv after 30 mins by gamma counting; assay type: ADME, organism-based, CCRF S-180; settings: in vivo, 0.5 h
[42] = Ratio of drug uptake in tumor to brain of mouse S180 cells xenografted Kunming mouse at 10 to 20 uCi, iv after 120 mins by gamma counting; assay type: ADME, organism-based, CCRF S-180; settings: in vivo, 2 h
Muscle tissue [43] = experiment: Biodistribution in mouse S180 cells xenografted Kunming mouse muscle at 10 to 20 uCi, iv after 120 mins by gamma counting; assay type: ADME, organism-based, CCRF S-180; settings: in vivo, 2 h

Drug uptake (Kidney [1]): 4.2 % ID/g
Drug uptake [2]: 2.28 % ID/g
Drug uptake (Lung [3]): 2.35 % ID/g
Drug uptake (Muscle tissue [4]): 1.78 % ID/g
Ratio [5]: 2.19
Ratio [6]: 4.81
Drug uptake (Kidney [7]): 13.79 % ID/g
Drug uptake (Heart [8]): 0.26 % ID/g
Drug uptake (Blood [9]): 3.17 % ID/g
Ratio [10]: 1.27
Drug uptake (Pancreas [11]): 0.2 % ID/g
Drug uptake (Pancreas [12]): 2.33 % ID/g
Drug uptake (Kidney [13]): 1.1 % ID/g
Drug uptake (Liver [14]): 2.53 % ID/g
Ratio [15]: 1.63
Drug uptake (Brain [16]): 0.05 % ID/g
Drug uptake (Brain [17]): 0.44 % ID/g
Drug uptake (Liver [18]): 0.38 % ID/g
Drug uptake (Lung [19]): 5.44 % ID/g
Drug uptake (Heart [20]): 4.48 % ID/g
Drug uptake (Blood [21]): 0.3 % ID/g
Drug uptake (Pancreas [22]): 1 % ID/g
Ratio [23]: 2.58
Drug uptake (Brain [24]): 0.19 % ID/g
Drug uptake (Heart [25]): 2.66 % ID/g
Ratio [26]: 1.16
Drug uptake (Lung [27]): 3.49 % ID/g
Drug uptake (Lung [28]): 0.66 % ID/g
Drug uptake [29]: 0.49 % ID/g
Drug uptake (Liver [30]): 4.13 % ID/g
Ratio [31]: 3.2
Ratio [32]: 7.15
Drug uptake (Pancreas [33]): 0.67 % ID/g
Drug uptake (Blood [34]): 0.95 % ID/g
Drug uptake (Pancreas [35]): 1.03 % ID/g
Drug uptake [36]: 1.36 % ID/g
Drug uptake (Lung [37]): 8.33 % ID/g
Drug uptake [38]: 1.49 % ID/g
Drug uptake (Kidney [39]): 35.9 % ID/g
Drug uptake (Liver [40]): 1.55 % ID/g
Drug uptake (Kidney [41]): 7.4 % ID/g
Ratio [42]: 9.8
Drug uptake (Muscle tissue [43]): 0.19 % ID/g
Structure (SMILES): CCCc1nc2c(C)cc(C(=O)O)cc2n1CC[18F]
